Experimental data from PubChem BioAssay AID1963854 (Molecular Pharmacology Branch, DTP, NCI, 2024).

System: 186277-243-T-J2-PDC complex spheroid viability
Assay: Anticancer human tumor 186277-243-T-J2-PDC patient-derived colon adenocarcinoma cell line growth inhibition [POLQ]
Conditions: for IC50: curve of first compound; for viability, T/C: stronger effect = lower value
In short: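 Patient-derived tumour cells were co-cultured with HUVEC and mesenchymal stem cells as multicellular spheroids at 37 °C. They were treated with POLQ inhibitors (novobiocin, ART-558, RP6685) alone or combined with other agents. Top concentrations were at or near clinical Cmax (otherwise 10 microM; SN-38 at 1 microM), decreasing in half-log steps.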

[1] = second compound 0.0316 µM, first compound 0.0316 µM
[2] = second compound 0.0316 µM, first compound 0.1 µM
[3] = second compound 0.0316 µM, first compound 0.316 µM
[4] = second compound 0.0316 µM, first compound 1 µM
[5] = second compound 0.0316 µM, first compound 3.16 µM
[6] = second compound 0.0316 µM, first compound 10 µM
[7] = second compound 0.1 µM, first compound 0.0316 µM
[8] = second compound 0.1 µM, first compound 0.1 µM
[9] = second compound 0.1 µM, first compound 0.316 µM
[10] = second compound 0.1 µM, first compound 1 µM
[11] = second compound 0.1 µM, first compound 3.16 µM
[12] = second compound 0.1 µM, first compound 10 µM
[13] = second compound 0.316 µM, first compound 0.0316 µM
[14] = second compound 0.316 µM, first compound 0.1 µM
[15] = second compound 0.316 µM, first compound 0.316 µM
[16] = second compound 0.316 µM, first compound 1 µM
[17] = second compound 0.316 µM, first compound 3.16 µM
[18] = second compound 0.316 µM, first compound 10 µM
[19] = second compound 1 µM, first compound 0.0316 µM
[20] = second compound 1 µM, first compound 0.1 µM
[21] = second compound 1 µM, first compound 0.316 µM
[22] = second compound 1 µM, first compound 1 µM
[23] = second compound 1 µM, first compound 3.16 µM
[24] = second compound 1 µM, first compound 10 µM
[25] = second compound 3.16 µM, first compound 0.0316 µM
[26] = second compound 3.16 µM, first compound 0.1 µM
[27] = second compound 3.16 µM, first compound 0.316 µM
[28] = second compound 3.16 µM, first compound 1 µM
[29] = second compound 3.16 µM, first compound 3.16 µM
[30] = second compound 3.16 µM, first compound 10 µM
[31] = second compound 10 µM, first compound 0.0316 µM
[32] = second compound 10 µM, first compound 0.1 µM
[33] = second compound 10 µM, first compound 0.316 µM
[34] = second compound 10 µM, first compound 1 µM
[35] = second compound 10 µM, first compound 3.16 µM
[36] = second compound 10 µM, first compound 10 µM
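Note: spheroids exposed to compounds for seven days.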
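Throughout, for viability, T/C: 100% = DMSO vehicle control viability.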

## CC1COCCN1c1cc(C2(O)CC3CCC(C2)O3)c2cnn(-c3ccn[nH]3)c2n1 (stereo unspecified) + COC1C(OC(N)=O)C(O)C(Oc2ccc3c(O)c(NC(=O)c4ccc(O)c(CC=C(C)C)c4)c(=O)oc3c2C)OC1(C)C
Second compound 0.0316 µM
  IC50: 37.5 nM
Second compound 0.1 µM
  IC50: 39.6 nM
Second compound 0.316 µM
  IC50: 40.3 nM
Second compound 1 µM
  IC50: 37.2 nM
Second compound 3.16 µM
  IC50: 41.8 nM
Second compound 10 µM
  IC50: < 31.6 nM
[1]
  viability, T/C: 56.8%
[2]
  viability, T/C: 11%
[3]
  viability, T/C: 4.13%
[4]
  viability, T/C: 2.97%
[5]
  viability, T/C: 3.3%
[6]
  viability, T/C: 3.36%
[7]
  viability, T/C: 60%
[8]
  viability, T/C: 8.95%
[9]
  viability, T/C: 3.87%
[10]
  viability, T/C: 2.7%
[11]
  viability, T/C: 3.24%
[12]
  viability, T/C: 3.18%
[13]
  viability, T/C: 60%
[14]
  viability, T/C: 12.3%
[15]
  viability, T/C: 4.98%
[16]
  viability, T/C: 2.92%
[17]
  viability, T/C: 3.45%
[18]
  viability, T/C: 3.48%
[19]
  viability, T/C: 56.2%
[20]
  viability, T/C: 12.9%
[21]
  viability, T/C: 3.79%
[22]
  viability, T/C: 2.66%
[23]
  viability, T/C: 3.46%
[24]
  viability, T/C: 3.76%
[25]
  viability, T/C: 63%
[26]
  viability, T/C: 9.45%
[27]
  viability, T/C: 4.01%
[28]
  viability, T/C: 2.86%
[29]
  viability, T/C: 3.33%
[30]
  viability, T/C: 3.12%
[31]
  viability, T/C: 47.8%
[32]
  viability, T/C: 7.48%
[33]
  viability, T/C: 4.86%
[34]
  viability, T/C: 2.78%
[35]
  viability, T/C: 4.14%
[36]
  viability, T/C: 3.73%

## O=C(Nc1ccc(O)c(NS(=O)(=O)c2ccc(F)cc2)c1)c1ccc(-c2ccccc2)cc1 + COC1C(OC(N)=O)C(O)C(Oc2ccc3c(O)c(NC(=O)c4ccc(O)c(CC=C(C)C)c4)c(=O)oc3c2C)OC1(C)C
Second compound 0.0316 µM
  IC50: > 10000 nM
Second compound 0.1 µM
  IC50: > 10000 nM
Second compound 0.316 µM
  IC50: > 10000 nM
Second compound 1 µM
  IC50: > 10000 nM
Second compound 3.16 µM
  IC50: > 10000 nM
Second compound 10 µM
  IC50: > 10000 nM
[1]
  viability, T/C: 89%
[2]
  viability, T/C: 113%
[3]
  viability, T/C: 107%
[4]
  viability, T/C: 99%
[5]
  viability, T/C: 105%
[6]
  viability, T/C: 94.3%
[7]
  viability, T/C: 107%
[8]
  viability, T/C: 105%
[9]
  viability, T/C: 102%
[10]
  viability, T/C: 98.2%
[11]
  viability, T/C: 107%
[12]
  viability, T/C: 93.1%
[13]
  viability, T/C: 96.2%
[14]
  viability, T/C: 104%
[15]
  viability, T/C: 116%
[16]
  viability, T/C: 104%
[17]
  viability, T/C: 119%
[18]
  viability, T/C: 96%
[19]
  viability, T/C: 90.8%
[20]
  viability, T/C: 101%
[21]
  viability, T/C: 116%
[22]
  viability, T/C: 95%
[23]
  viability, T/C: 125%
[24]
  viability, T/C: 99.4%
[25]
  viability, T/C: 90.1%
[26]
  viability, T/C: 103%
[27]
  viability, T/C: 111%
[28]
  viability, T/C: 103%
[29]
  viability, T/C: 105%
[30]
  viability, T/C: 91.5%
[31]
  viability, T/C: 91.9%
[32]
  viability, T/C: 111%
[33]
  viability, T/C: 103%
[34]
  viability, T/C: 103%
[35]
  viability, T/C: 108%
[36]
  viability, T/C: 101%

## CC(=O)O[C@H]1C(=O)[C@@]2(C)[C@H]([C@H](OC(=O)c3ccccc3)[C@]3(O)C[C@H](OC(=O)[C@H](O)[C@@H](NC(=O)c4ccccc4)c4ccccc4)C(C)=C1C3(C)C)[C@]1(OC(C)=O)CO[C@@H]1C[C@@H]2O + Cc1cccc(N(C)C(=O)C2C(O)CCN2c2nc(C)cc(C(F)(F)F)c2C#N)c1
Second compound 0.0316 µM
  IC50: < 9.49 nM
Second compound 0.1 µM
  IC50: < 9.49 nM
Second compound 0.316 µM
  IC50: < 9.49 nM
Second compound 1 µM
  IC50: < 9.49 nM
Second compound 3.16 µM
  IC50: < 9.49 nM
Second compound 10 µM
  IC50: < 9.49 nM
Second compound 0.0316 µM, first compound 0.00949 µM
  viability, T/C: 37.5%
Second compound 0.0316 µM, first compound 0.03 µM
  viability, T/C: 10.3%
Second compound 0.0316 µM, first compound 0.0949 µM
  viability, T/C: 7.26%
Second compound 0.0316 µM, first compound 0.3 µM
  viability, T/C: 5.79%
Second compound 0.0316 µM, first compound 0.949 µM
  viability, T/C: 5.96%
Second compound 0.0316 µM, first compound 3 µM
  viability, T/C: 6.11%
Second compound 0.1 µM, first compound 0.00949 µM
  viability, T/C: 35%
Second compound 0.1 µM, first compound 0.03 µM
  viability, T/C: 10.9%
Second compound 0.1 µM, first compound 0.0949 µM
  viability, T/C: 7.5%
Second compound 0.1 µM, first compound 0.3 µM
  viability, T/C: 5.9%
Second compound 0.1 µM, first compound 0.949 µM
  viability, T/C: 5.52%
Second compound 0.1 µM, first compound 3 µM
  viability, T/C: 6.96%
Second compound 0.316 µM, first compound 0.00949 µM
  viability, T/C: 45.3%
Second compound 0.316 µM, first compound 0.03 µM
  viability, T/C: 10.2%
Second compound 0.316 µM, first compound 0.0949 µM
  viability, T/C: 6.71%
Second compound 0.316 µM, first compound 0.3 µM
  viability, T/C: 5.81%
Second compound 0.316 µM, first compound 0.949 µM
  viability, T/C: 5.53%
Second compound 0.316 µM, first compound 3 µM
  viability, T/C: 5.53%
Second compound 1 µM, first compound 0.00949 µM
  viability, T/C: 34.8%
Second compound 1 µM, first compound 0.03 µM
  viability, T/C: 12.4%
Second compound 1 µM, first compound 0.0949 µM
  viability, T/C: 6.22%
Second compound 1 µM, first compound 0.3 µM
  viability, T/C: 5.71%
Second compound 1 µM, first compound 0.949 µM
  viability, T/C: 5.47%
Second compound 1 µM, first compound 3 µM
  viability, T/C: 5.47%
Second compound 3.16 µM, first compound 0.00949 µM
  viability, T/C: 27.2%
Second compound 3.16 µM, first compound 0.03 µM
  viability, T/C: 10.5%
Second compound 3.16 µM, first compound 0.0949 µM
  viability, T/C: 6.13%
Second compound 3.16 µM, first compound 0.3 µM
  viability, T/C: 5.47%
Second compound 3.16 µM, first compound 0.949 µM
  viability, T/C: 5.6%
Second compound 3.16 µM, first compound 3 µM
  viability, T/C: 5.16%
Second compound 10 µM, first compound 0.00949 µM
  viability, T/C: 20.3%
Second compound 10 µM, first compound 0.03 µM
  viability, T/C: 6.86%
Second compound 10 µM, first compound 0.0949 µM
  viability, T/C: 5.75%
Second compound 10 µM, first compound 0.3 µM
  viability, T/C: 5.46%
Second compound 10 µM, first compound 0.949 µM
  viability, T/C: 5.93%
Second compound 10 µM, first compound 3 µM
  viability, T/C: 6.1%
